US9884868B2, “TGF-beta inhibitors” (Rigel Pharmaceuticals, Inc., priority 2015, dated 2018)
Read-outs that look alike come from different tables or passages of the source.

Columns and labels:
HIS-TGF-βR2 WT = HIS-TGF-βR2 WT (Homo sapiens (Human), UniProt P37173); assay: HTRF probe displacement assay with HIS-TGF-βR2 WT
HIS-TGF-βR1 T204D = HIS-TGF-βR1 T204D (Homo sapiens (Human), UniProt P36897, T204D); assay: HTRF probe displacement assay with HIS-TGF-βR1 T204D
[1] = read-out: TGFBr2 IC50, HTRF probe displacement, 1 nM HIS-TGF-βR2 WT, 1 hour at room temperature
[2] = read-out: TGFbr1 IC50, HTRF probe displacement, 1 nM HIS-TGF-βR1 T204D, 1 hour at room temperature

Chain of HIS-TGF-βR1 T204D (P36897 34-503 T204D): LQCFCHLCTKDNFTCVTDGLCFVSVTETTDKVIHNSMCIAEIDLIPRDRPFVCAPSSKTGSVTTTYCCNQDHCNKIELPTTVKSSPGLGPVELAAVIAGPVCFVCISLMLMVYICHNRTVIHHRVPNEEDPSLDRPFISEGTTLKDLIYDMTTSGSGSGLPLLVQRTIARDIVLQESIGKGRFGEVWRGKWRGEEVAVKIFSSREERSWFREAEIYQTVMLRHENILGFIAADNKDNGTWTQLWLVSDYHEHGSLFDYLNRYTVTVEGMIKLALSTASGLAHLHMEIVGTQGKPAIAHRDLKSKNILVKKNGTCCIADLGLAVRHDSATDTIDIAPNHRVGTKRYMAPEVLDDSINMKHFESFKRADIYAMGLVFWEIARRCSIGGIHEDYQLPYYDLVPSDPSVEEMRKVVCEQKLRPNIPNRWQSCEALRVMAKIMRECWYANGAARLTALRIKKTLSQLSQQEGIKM
Chain of HIS-TGF-βR2 WT (P37173 23-567): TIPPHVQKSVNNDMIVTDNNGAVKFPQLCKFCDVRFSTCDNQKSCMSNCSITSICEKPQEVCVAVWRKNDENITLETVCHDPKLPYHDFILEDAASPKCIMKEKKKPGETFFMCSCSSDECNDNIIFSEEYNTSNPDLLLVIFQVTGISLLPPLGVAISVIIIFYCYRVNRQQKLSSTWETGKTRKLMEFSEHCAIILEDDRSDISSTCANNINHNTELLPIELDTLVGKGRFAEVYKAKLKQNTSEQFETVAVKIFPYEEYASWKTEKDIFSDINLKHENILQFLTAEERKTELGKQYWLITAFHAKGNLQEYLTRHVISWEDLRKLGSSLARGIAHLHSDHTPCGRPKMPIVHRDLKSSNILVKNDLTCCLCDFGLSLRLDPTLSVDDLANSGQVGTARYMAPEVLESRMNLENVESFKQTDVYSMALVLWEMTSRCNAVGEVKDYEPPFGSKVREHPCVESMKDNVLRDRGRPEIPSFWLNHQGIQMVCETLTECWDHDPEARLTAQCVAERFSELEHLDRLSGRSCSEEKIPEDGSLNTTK

Structure (SMILES)	IC50 (HIS-TGF-βR2 WT; [1])	IC50 (HIS-TGF-βR1 T204D; [2])	IC50 (HIS-TGF-βR2 WT)	IC50 (HIS-TGF-βR1 T204D)
NC(=O)c1cnc2ccc(-c3c(-c4ccc(F)cc4)ncn3CC(O)C(F)(F)F)cn12 (stereo not shown) [169′, 6-(4-(4-fluorophenyl)-1-(3,3,3-trifluoro-2-hydroxypropyl)-1H-imidazol-5-yl)imidazo[1,2-a]pyridine-3-carboxamide]	> 15000 nM	21.3 nM		
CC(=O)N1CCn2c(nc(-c3ccc(F)cc3)c2-c2ccc3ncc(C(N)=O)n3c2)C1 [292′, 6-(7-acetyl-2-(4-fluorophenyl)-5,6,7,8-tetrahydroimidazo[1,2-a]pyrazin-3-yl)imidazo[1,2-a]pyridine-3-carboxamide]	> 15000 nM			
N#Cc1cnc2ccc(-c3c(-c4ccc(F)cc4)ncn3C3CN(C(=O)C4CC4)C3)nn12 [Example 192′, 6-(1-(1-(cyclopropanecarbonyl)azetidin-3-yl)-4-(4-fluorophenyl)-1H-imidazol-5-yl)imidazo[1,2-b]pyridazine-3-carbonitrile]	> 15000 nM	229 nM		
N#Cc1cnc2ccc(-c3c(-c4ccc(F)cc4)ncn3[C@@H](CO)CC(F)(F)F)nn12 [28′, (R)-6-(4-(4-fluorophenyl)-1-(4,4,4-trifluoro-1-hydroxybutan-2-yl)-1H-imidazol-5-yl)imidazo[1,2-b]pyridazine-3-carbonitrile]	> 15000 nM	1 nM		
N#Cc1cnc2ccc(-c3c(-c4ccc(F)cc4)ncn3C3CCC(F)(F)CC3)nn12 [8′, 6-(1-(4,4-difluorocyclohexyl)-4-(4-fluorophenyl)-1H-imidazol-5-yl)imidazo[1,2-b]pyridazine-3-carbonitrile]	> 15000 nM	17.9 nM		
N#Cc1cnc2ccc(-c3c(-c4ccccc4C(F)(F)F)ncn3CC(F)F)nn12 [246′, 6-(1-(2,2-difluoroethyl)-4-(2-(trifluoromethyl)phenyl)-1H-imidazol-5-yl)imidazo[1,2-b]pyridazine-3-carbonitrile]	> 15000 nM	144 nM		
CC(C)(C)C(=O)NCc1cnc2ccc(-c3c(-c4ccc(F)cc4)ncn3CC(F)F)nn12 [Example 202′, N-((6-(1-(2,2-difluoroethyl)-4-(4-fluorophenyl)-1H-imidazol-5-yl)imidazo[1,2-b]pyridazin-3-yl)methyl)pivalamide]	> 15000 nM	43.8 nM		
N#Cc1cnc2ccc(-c3c(-c4ccc(C(F)(F)F)cc4)ncn3CC(F)F)nn12 [244′, 6-(1-(2,2-difluoroethyl)-4-(4-(trifluoromethyl)phenyl)-1H-imidazol-5-yl)imidazo[1,2-b]pyridazine-3-carbonitrile]	> 15000 nM	546 nM		
CC(C)(C)NC(=O)NCc1cnc2ccc(-c3c(-c4ccc(F)cc4)ncn3CC(F)F)nn12 [Example 199′, 1-(tert-butyl)-3-((6-(1-(2,2-difluoroethyl)-4-(4-fluorophenyl)-1H-imidazol-5-yl)imidazo[1,2-b]pyridazin-3-yl)methyl)urea]	> 15000 nM	9.5 nM		
NC(=O)c1cnc2ccc(-c3c(-c4ccc(F)c(Cl)c4)ncn3C3CC(F)(F)C3)cn12 [121′, 6-(4-(3-chloro-4-fluorophenyl)-1-(3,3-difluorocyclobutyl)-1H-imidazol-5-yl)imidazo[1,2-a]pyridine-3-carboxamide]	> 15000 nM	1.1 nM		
NC(=O)c1cnc2ccc(-c3c(-c4ccc(F)c(Cl)c4)ncn3CCC(F)(F)F)nn12 [115′, 6-(4-(3-chloro-4-fluorophenyl)-1-(3,3,3-trifluoropropyl)-1H-imidazol-5-yl)imidazo[1,2-b]pyridazine-3-carboxamide]			> 15000 nM	4.6 nM
COC(=O)Nc1cnc2ccc(-c3c(-c4ccc(F)cc4)ncn3CC(F)F)cn12 [Example 284′, methyl (6-(1-(2,2-difluoroethyl)-4-(4-fluorophenyl)-1H-imidazol-5-yl)imidazo[1,2-a]pyridin-3-yl)carbamate]	> 15000 nM	426 nM		
CC(C)(O)CCn1cnc(-c2ccc(F)c(Cl)c2)c1-c1ccc2ncc(C(N)=O)n2n1 [139′, 6-(4-(3-chloro-4-fluorophenyl)-1-(3-hydroxy-3-methylbutyl)-1H-imidazol-5-yl)imidazo[1,2-b]pyridazine-3-carboxamide]	> 15000 nM	5.2 nM		
N#Cc1cnc2ccc(-c3c(-c4ccc(F)cc4)ncn3CC(O)C(F)(F)F)cn12 (stereo not shown) [93′, 6-(4-(4-fluorophenyl)-1-(3,3,3-trifluoro-2-hydroxypropyl)-1H-imidazol-5-yl)imidazo[1,2-a]pyridine-3-carbonitrile]			> 15000 nM	576 nM
COCC(C1CC1)n1cnc(-c2ccc(F)cc2)c1-c1ccc2ncc(C#N)n2n1 (stereo not shown) [16′, 6-(1-(1-cyclopropyl-2-methoxyethyl)-4-(4-fluorophenyl)-1H-imidazol-5-yl)imidazo[1,2-b]pyridazine-3-carbonitrile]			> 15000 nM	2.3 nM
NC(=O)c1cnc2ccc(-c3c(-c4ccc(F)cc4)ncn3C3CCC(F)(F)CC3)nn12 [110′, 6-(1-(4,4-difluorocyclohexyl)-4-(4-fluorophenyl)-1H-imidazol-5-yl)imidazo[1,2-b]pyridazine-3-carboxamide]	> 15000 nM	20.5 nM		

Structure (SMILES)	IC50 (HIS-TGF-βR2 WT; [1])	IC50 (HIS-TGF-βR1 T204D; [2])	IC50 (HIS-TGF-βR2 WT)	IC50 (HIS-TGF-βR1 T204D)
O=C(NCc1cnc2ccc(-c3c(-c4ccc(F)cc4)ncn3CC(F)F)nn12)C1CC1 [Example 198′, N-((6-(1-(2,2-difluoroethyl)-4-(4-fluorophenyl)-1H-imidazol-5-yl)imidazo[1,2-b]pyridazin-3-yl)methyl)cyclopropanecarboxamide]	> 15000 nM	5.3 nM		
OC(c1cnc2ccc(-c3c(-c4ccc(F)cc4)ncn3CC(F)F)nn12)C(F)(F)F (stereo not shown) [Example 213′, 1-(6-(1-(2,2-difluoroethyl)-4-(4-fluorophenyl)-1H-imidazol-5-yl)imidazo[1,2-b]pyridazin-3-yl)-2,2,2-trifluoroethanol]	> 15000 nM	2.3 nM		
CC(C)Oc1ccc(-c2ncn(CC(F)F)c2-c2ccc3ncc(C#N)n3n2)cc1 [263′, 6-(1-(2,2-difluoroethyl)-4-(4-isopropoxyphenyl)-1H-imidazol-5-yl)imidazo[1,2-b]pyridazine-3-carbonitrile]	> 15000 nM	171 nM		
CS(=O)(=O)Nc1cccc(-c2ncn(CC(F)F)c2-c2ccc3ncc(C#N)n3n2)c1 [252′, N-(3-(5-(3-cyanoimidazo[1,2-b]pyridazin-6-yl)-1-(2,2-difluoroethyl)-1H-imidazol-4-yl)phenyl)methanesulfonamide]	> 15000 nM	7.7 nM		
CC(C)(C)NC(=O)N1CC(n2cnc(-c3ccc(F)cc3)c2-c2ccc3ncc(C#N)n3n2)C1 [Example 193′, N-(tert-butyl)-3-(5-(3-cyanoimidazo[1,2-b]pyridazin-6-yl)-4-(4-fluorophenyl)-1H-imidazol-1-yl)azetidine-1-carboxamide]	> 15000 nM	227 nM		
COC(=O)NCc1cnc2ccc(-c3c(-c4ccc(F)cc4)ncn3CC(F)F)nn12 [Example 200′, methyl ((6-(1-(2,2-difluoroethyl)-4-(4-fluorophenyl)-1H-imidazol-5-yl)imidazo[1,2-b]pyridazin-3-yl)methyl)carbamate]	> 15000 nM	12 nM		
N#Cc1cnc2ccc(-c3c(-c4ccc(F)c(C(F)(F)F)c4)ncn3CC(F)F)nn12 [260′, 6-(1-(2,2-difluoroethyl)-4-(4-fluoro-3-(trifluoromethyl)phenyl)-1H-imidazol-5-yl)imidazo[1,2-b]pyridazine-3-carbonitrile]	> 15000 nM	8.8 nM		
CS(=O)(=O)c1cccc(-c2ncn(CC(F)F)c2-c2ccc3ncc(C#N)n3n2)c1 [254′, 6-(1-(2,2-difluoroethyl)-4-(3-(methylsulfonyl)phenyl)-1H-imidazol-5-yl)imidazo[1,2-b]pyridazine-3-carbonitrile]	> 15000 nM	752 nM		
N#Cc1cnc2ccc(-c3c(-c4ccc(F)c(Cl)c4)ncn3CC(O)C(F)(F)F)nn12 (stereo not shown) [55′, 6-(4-(3-chloro-4-fluorophenyl)-1-(3,3,3-trifluoro-2-hydroxypropyl)-1H-imidazol-5-yl)imidazo[1,2-b]pyridazine-3-carbonitrile]			> 15000 nM	6.7 nM
N#Cc1cnc2ccc(-c3c(-c4cccc(-c5ccccc5)c4)ncn3CC(F)F)nn12 [257′, 6-(4-([1,1′-biphenyl]-3-yl)-1-(2,2-difluoroethyl)-1H-imidazol-5-yl)imidazo[1,2-b]pyridazine-3-carbonitrile]	> 15000 nM			
N#Cc1cnc2ccc(-c3c(-c4ccc(F)cc4C(F)(F)F)ncn3CC(F)F)nn12 [261′, 6-(1-(2,2-difluoroethyl)-4-(4-fluoro-2-(trifluoromethyl)phenyl)-1H-imidazol-5-yl)imidazo[1,2-b]pyridazine-3-carbonitrile]	> 15000 nM			
N#Cc1cnc2ccc(-c3c(-c4ccc5c(c4)OCO5)ncn3CC(F)F)nn12 [247′, 6-(4-(benzo[d][1,3]dioxol-5-yl)-1-(2,2-difluoroethyl)-1H-imidazol-5-yl)imidazo[1,2-b]pyridazine-3-carbonitrile]		14.3 nM		
N#Cc1cnc2ccc(-c3c(-c4ccc(F)cc4)ncn3CCC(F)F)nn12 [20′, 6-(1-(3,3-difluoropropyl)-4-(4-fluorophenyl)-1H-imidazol-5-yl)imidazo[1,2-b]pyridazine-3-carbonitrile]		2.2 nM		
N#Cc1cnc2ccc(-c3c(-c4ccc(F)c(Cl)c4)ncn3CCC(F)(F)F)nn12 [35′, 6-(4-(3-chloro-4-fluorophenyl)-1-(3,3,3-trifluoropropyl)-1H-imidazol-5-yl)imidazo[1,2-b]pyridazine-3-carbonitrile]				2.6 nM
CC(CO)n1cnc(-c2ccc(F)cc2)c1-c1ccc2ncc(C(N)=O)n2c1 (stereo not shown) [175′, 6-(4-(4-fluorophenyl)-1-(1-hydroxypropan-2-yl)-1H-imidazol-5-yl)imidazo[1,2-a]pyridine-3-carboxamide]		2 nM		
